# Assay results taken from PubChem BioAssay (NCI).
#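 Tested at 5 concentrations; 48 h exposure; 96-well plates; endpoints linearly interpolated, else capped at highest concentration. The concentration for 50% growth inhibition is given as GI50. TGI: total growth inhibition.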
# What was measured:
# Assay in all cases: growth of human tumour cells (NCI), 48 h
# NCI/ADR-RES ovarian = test system: NCI/ADR-RES ovarian
# MOLT-4 leukemia = test system: MOLT-4 leukemia
# NCI-H522 lung = test system: NCI-H522 lung
# MCF7 breast = test system: MCF7 breast
# SF-295 CNS = test system: SF-295 CNS
# SW-620 colon = test system: SW-620 colon
# MALME-3M melanoma = test system: MALME-3M melanoma
# SN12C renal = test system: SN12C renal
# MDA-MB-435 = test system: MDA-MB-435
# A549 NSCLC = test system: A549 NSCLC
# OVCAR-5 ovarian = test system: OVCAR-5 ovarian
# MDA-MB-231 breast = test system: MDA-MB-231 breast
# CAKI-1 renal = test system: CAKI-1 renal
# IGROV1 ovarian = test system: IGROV1 ovarian
# SR leukemia = test system: SR leukemia
# SF-268 CNS = test system: SF-268 CNS
# 786-0 renal = test system: 786-0 renal
# HCT-116 colon = test system: HCT-116 colon
# RXF 393 renal = test system: RXF 393 renal
# A498 renal = test system: A498 renal
# HS 578T breast = test system: HS 578T breast
# HOP-62 NSCLC = test system: HOP-62 NSCLC
# SK-MEL-28 melanoma = test system: SK-MEL-28 melanoma
# CCRF-CEM leukemia = test system: CCRF-CEM leukemia
# T-47D breast = test system: T-47D breast
# LOX IMVI melanoma = test system: LOX IMVI melanoma
# OVCAR-8 ovarian = test system: OVCAR-8 ovarian
# OVCAR-4 ovarian = test system: OVCAR-4 ovarian
# SF-539 CNS = test system: SF-539 CNS
# OVCAR-3 ovarian = test system: OVCAR-3 ovarian
# HT29 colon = test system: HT29 colon
# TK-10 renal = test system: TK-10 renal
# COLO 205 colon = test system: COLO 205 colon
# PC-3 prostate = test system: PC-3 prostate
# HCT-15 colon = test system: HCT-15 colon
# NCI-H23 lung = test system: NCI-H23 lung
# HCC-2998 colon = test system: HCC-2998 colon
# M14 melanoma = test system: M14 melanoma
# KM12 colon = test system: KM12 colon
# DU-145 prostate = test system: DU-145 prostate
# SNB-19 CNS = test system: SNB-19 CNS
# SNB-75 CNS = test system: SNB-75 CNS
# HOP-92 NSCLC = test system: HOP-92 NSCLC
# RPMI-8226 leukemia = test system: RPMI-8226 leukemia
# UO-31 renal = test system: UO-31 renal
# HL-60(TB) leukemia = test system: HL-60(TB) leukemia
# K-562 leukemia = test system: K-562 leukemia
# NCI-H460 lung = test system: NCI-H460 lung
# UACC-257 melanoma = test system: UACC-257 melanoma
# BT-549 breast = test system: BT-549 breast
# SK-OV-3 ovarian = test system: SK-OV-3 ovarian
# EKVX NSCLC = test system: EKVX NSCLC
# ACHN renal = test system: ACHN renal
# SK-MEL-2 melanoma = test system: SK-MEL-2 melanoma
# SK-MEL-5 melanoma = test system: SK-MEL-5 melanoma
# NCI-H226 lung = test system: NCI-H226 lung
# U251 CNS = test system: U251 CNS
# UACC-62 melanoma = test system: UACC-62 melanoma
# MDA-N = test system: MDA-N
structure (smiles),measurement,setting,value
COc1cc(O)c([C@@H]2C[C@H](CCc3ccc(O)cc3)O[C@H](c3ccc(O)cc3)C2)c(O)c1C(=O)/C=C/c1ccc(O)cc1,GI50,NCI/ADR-RES ovarian,5.53 µM
same,TGI,NCI/ADR-RES ovarian,25.5 µM
same,GI50,MOLT-4 leukemia,1.44 µM
same,TGI,MOLT-4 leukemia,4.24 µM
same,GI50,NCI-H522 lung,2.73 µM
same,TGI,NCI-H522 lung,8.52 µM
same,GI50,MCF7 breast,1.96 µM
same,TGI,MCF7 breast,4.61 µM
same,GI50,SF-295 CNS,3.83 µM
same,TGI,SF-295 CNS,17.9 µM
same,GI50,SW-620 colon,2.24 µM
same,TGI,SW-620 colon,6.12 µM
same,GI50,MALME-3M melanoma,3.39 µM
same,TGI,MALME-3M melanoma,> 30.8 µM
same,GI50,SN12C renal,3.23 µM
same,TGI,SN12C renal,13.8 µM
same,GI50,MDA-MB-435,3.14 µM
same,TGI,MDA-MB-435,10.8 µM
same,GI50,A549 NSCLC,3.33 µM
same,TGI,A549 NSCLC,25.1 µM
same,GI50,OVCAR-5 ovarian,3.81 µM
same,TGI,OVCAR-5 ovarian,12.5 µM
same,GI50,MDA-MB-231 breast,2.5 µM
same,TGI,MDA-MB-231 breast,6.23 µM
same,GI50,CAKI-1 renal,5.76 µM
same,TGI,CAKI-1 renal,18.3 µM
same,GI50,IGROV1 ovarian,2.2 µM
same,TGI,IGROV1 ovarian,5.44 µM
same,GI50,SR leukemia,2.42 µM
same,TGI,SR leukemia,4.8 µM
same,GI50,SF-268 CNS,2.86 µM
same,TGI,SF-268 CNS,24.4 µM
same,GI50,786-0 renal,2.28 µM
same,TGI,786-0 renal,4.97 µM
same,GI50,HCT-116 colon,2.74 µM
same,TGI,HCT-116 colon,8.27 µM
same,GI50,RXF 393 renal,2.48 µM
same,TGI,RXF 393 renal,5.64 µM
same,GI50,A498 renal,4.24 µM
same,TGI,A498 renal,11.3 µM
same,GI50,HS 578T breast,2.53 µM
same,TGI,HS 578T breast,15.4 µM
same,GI50,HOP-62 NSCLC,2.77 µM
same,TGI,HOP-62 NSCLC,6.02 µM
same,GI50,SK-MEL-28 melanoma,3.28 µM
same,TGI,SK-MEL-28 melanoma,12 µM
same,GI50,CCRF-CEM leukemia,2.32 µM
same,TGI,CCRF-CEM leukemia,7.36 µM
same,GI50,T-47D breast,2.93 µM
same,TGI,T-47D breast,9.77 µM
same,GI50,LOX IMVI melanoma,1.93 µM
same,TGI,LOX IMVI melanoma,3.63 µM
same,GI50,OVCAR-8 ovarian,3.17 µM
same,TGI,OVCAR-8 ovarian,10.5 µM
same,GI50,OVCAR-4 ovarian,3.8 µM
same,TGI,OVCAR-4 ovarian,29.5 µM
same,GI50,SF-539 CNS,2.23 µM
same,TGI,SF-539 CNS,4.98 µM
same,GI50,OVCAR-3 ovarian,2.69 µM
same,TGI,OVCAR-3 ovarian,7.16 µM
same,GI50,HT29 colon,3.31 µM
same,TGI,HT29 colon,10.2 µM
same,GI50,TK-10 renal,3.94 µM
same,TGI,TK-10 renal,13.5 µM
same,GI50,COLO 205 colon,2.51 µM
same,TGI,COLO 205 colon,5.4 µM
same,GI50,PC-3 prostate,2.45 µM
same,TGI,PC-3 prostate,6.94 µM
same,GI50,HCT-15 colon,2.45 µM
same,TGI,HCT-15 colon,6.88 µM
same,GI50,NCI-H23 lung,2.57 µM
same,TGI,NCI-H23 lung,5.71 µM
same,GI50,HCC-2998 colon,0.558 µM
same,TGI,HCC-2998 colon,1.73 µM
same,GI50,M14 melanoma,3.24 µM
same,TGI,M14 melanoma,9.3 µM
same,GI50,KM12 colon,9.83 µM
same,TGI,KM12 colon,> 35 µM
same,GI50,DU-145 prostate,3.15 µM
same,TGI,DU-145 prostate,10.1 µM
same,GI50,SNB-19 CNS,3.37 µM
same,TGI,SNB-19 CNS,10.6 µM
same,GI50,SNB-75 CNS,2.86 µM
same,TGI,SNB-75 CNS,8.22 µM
same,GI50,HOP-92 NSCLC,2.2 µM
same,TGI,HOP-92 NSCLC,4.96 µM
same,GI50,RPMI-8226 leukemia,2.11 µM
same,TGI,RPMI-8226 leukemia,4.68 µM
same,GI50,UO-31 renal,2.9 µM
same,TGI,UO-31 renal,7.96 µM
same,GI50,HL-60(TB) leukemia,2.13 µM
same,TGI,HL-60(TB) leukemia,5.2 µM
same,GI50,K-562 leukemia,2.32 µM
same,TGI,K-562 leukemia,6.24 µM
same,GI50,NCI-H460 lung,2.71 µM
same,TGI,NCI-H460 lung,7.49 µM
same,GI50,UACC-257 melanoma,3.82 µM
same,TGI,UACC-257 melanoma,13.2 µM
same,GI50,BT-549 breast,2.39 µM
same,TGI,BT-549 breast,5.34 µM
same,GI50,SK-OV-3 ovarian,2.74 µM
same,TGI,SK-OV-3 ovarian,6.11 µM
same,GI50,EKVX NSCLC,4.1 µM
same,TGI,EKVX NSCLC,16.7 µM
same,GI50,ACHN renal,2.43 µM
same,TGI,ACHN renal,6.01 µM
same,GI50,SK-MEL-2 melanoma,2.38 µM
same,TGI,SK-MEL-2 melanoma,6.86 µM
same,GI50,SK-MEL-5 melanoma,2.11 µM
same,TGI,SK-MEL-5 melanoma,6.05 µM
same,GI50,NCI-H226 lung,7.04 µM
same,TGI,NCI-H226 lung,21.5 µM
same,GI50,U251 CNS,2.81 µM
same,TGI,U251 CNS,9.22 µM
same,GI50,UACC-62 melanoma,2.38 µM
same,TGI,UACC-62 melanoma,5.92 µM
CN(C)c1ccc(/C=N/Nc2nc3ccccc3c(=O)n2-c2ccccc2)cc1,TGI,NCI/ADR-RES ovarian,> 100 µM
same,TGI,MOLT-4 leukemia,> 100 µM
same,TGI,NCI-H522 lung,> 100 µM
same,TGI,MCF7 breast,> 100 µM
same,TGI,SF-295 CNS,> 100 µM
same,TGI,SW-620 colon,> 100 µM
same,TGI,MALME-3M melanoma,> 100 µM
same,TGI,SN12C renal,> 100 µM
same,TGI,MDA-MB-435,> 100 µM
same,TGI,A549 NSCLC,> 100 µM
same,TGI,OVCAR-5 ovarian,> 100 µM
same,TGI,MDA-MB-231 breast,> 100 µM
same,TGI,CAKI-1 renal,> 100 µM
same,TGI,IGROV1 ovarian,> 100 µM
same,TGI,SR leukemia,> 100 µM
same,TGI,SF-268 CNS,> 100 µM
same,TGI,786-0 renal,83.3 µM
same,TGI,HCT-116 colon,> 100 µM
same,TGI,RXF 393 renal,> 100 µM
same,TGI,A498 renal,> 100 µM
same,TGI,HOP-62 NSCLC,97.8 µM
same,TGI,SK-MEL-28 melanoma,> 100 µM
same,TGI,CCRF-CEM leukemia,> 100 µM
same,TGI,T-47D breast,> 100 µM
same,TGI,LOX IMVI melanoma,> 100 µM
same,TGI,OVCAR-8 ovarian,> 100 µM
same,TGI,OVCAR-4 ovarian,70.2 µM
same,TGI,SF-539 CNS,72 µM
same,TGI,OVCAR-3 ovarian,> 100 µM
same,TGI,HT29 colon,> 100 µM
same,TGI,TK-10 renal,> 100 µM
same,TGI,COLO 205 colon,> 100 µM
same,TGI,PC-3 prostate,> 100 µM
same,TGI,HCT-15 colon,> 100 µM
same,TGI,NCI-H23 lung,> 100 µM
same,TGI,HCC-2998 colon,> 100 µM
same,TGI,M14 melanoma,> 100 µM
same,TGI,KM12 colon,> 100 µM
same,TGI,DU-145 prostate,> 100 µM
same,TGI,SNB-19 CNS,> 100 µM
same,TGI,SNB-75 CNS,57.5 µM
same,TGI,HOP-92 NSCLC,85.9 µM
same,TGI,MDA-N,> 100 µM
same,TGI,UO-31 renal,> 100 µM
same,TGI,HL-60(TB) leukemia,> 100 µM
same,TGI,K-562 leukemia,> 100 µM
same,TGI,NCI-H460 lung,> 100 µM
same,TGI,UACC-257 melanoma,> 100 µM
same,TGI,SK-OV-3 ovarian,> 100 µM
same,TGI,ACHN renal,> 100 µM
same,TGI,SK-MEL-5 melanoma,> 100 µM
same,TGI,NCI-H226 lung,> 100 µM
same,TGI,U251 CNS,> 100 µM
same,TGI,UACC-62 melanoma,93.6 µM
COc1ccc(C2=C(OC(=O)N(C)C)c3cccn3-c3cc(C(F)(F)F)ccc3S2)cc1,TGI,MOLT-4 leukemia,> 10 µM
same,TGI,MCF7 breast,> 10 µM
same,TGI,SF-295 CNS,> 10 µM
same,TGI,SW-620 colon,> 10 µM
same,TGI,MALME-3M melanoma,> 10 µM
same,TGI,SN12C renal,> 10 µM
same,TGI,A549 NSCLC,> 10 µM
same,TGI,CAKI-1 renal,> 10 µM
same,TGI,IGROV1 ovarian,> 10 µM
same,TGI,SR leukemia,> 10 µM
same,TGI,SF-268 CNS,> 10 µM
same,TGI,786-0 renal,> 10 µM
same,TGI,HOP-62 NSCLC,> 10 µM
same,TGI,SK-MEL-28 melanoma,> 10 µM
same,TGI,CCRF-CEM leukemia,> 10 µM
same,TGI,T-47D breast,> 10 µM
same,TGI,LOX IMVI melanoma,> 10 µM
same,TGI,OVCAR-8 ovarian,> 10 µM
same,TGI,HT29 colon,> 10 µM
same,TGI,TK-10 renal,> 10 µM
same,TGI,COLO 205 colon,> 10 µM
same,TGI,PC-3 prostate,> 10 µM
same,TGI,HCT-15 colon,> 10 µM
same,TGI,NCI-H23 lung,> 10 µM
same,TGI,HCC-2998 colon,> 10 µM
same,TGI,M14 melanoma,> 10 µM
same,TGI,KM12 colon,> 10 µM
same,TGI,DU-145 prostate,> 10 µM
same,TGI,SNB-75 CNS,> 10 µM
same,TGI,MDA-N,> 10 µM
same,TGI,RPMI-8226 leukemia,> 10 µM
same,TGI,HL-60(TB) leukemia,> 10 µM
same,TGI,K-562 leukemia,> 10 µM
same,TGI,UACC-257 melanoma,> 10 µM
same,TGI,SK-OV-3 ovarian,> 10 µM
same,TGI,EKVX NSCLC,> 10 µM
same,TGI,SK-MEL-5 melanoma,> 10 µM
same,TGI,UACC-62 melanoma,> 10 µM
